{"source": "patent US20220016277A1", "about": "“MACROCYCLIC COMPLEXES OF RADIONUCLIDES AND THEIR USE IN RADIOTHERAPY OF CANCER” (Cornell University, priority 2018, published 2022)", "experiment": "Organ distribution of ^225Ac complexes following intravenous injection in mice", "format": "in vivo, C57BL/6 mice", "description": "In Vivo Biodistribution of ^225Ac Complexes of Macropa and DOTA. All experiments were approved by the Institutional Animal Care Committee (IACC) of the University of British Columbia and were performed in accordance with the Canadian Council on Animal Care Guidelines. A total of 9 female C57BL/6 mice (6-8 weeks old, 20-25 g) were used for the biodistribution study of each radiometal complex, n=3 for each time point.\nMacropa (100 μL of a 1 mg/mL solution in NH4OAc) was diluted with 387 μL of NH4OAc (1 M, pH 7), and an aliquot (203 μL) of ^225Ac(NO3)3 (˜157 kBq) was then added; the pH of this solution was adjusted to 6.5-7 by the addition of 1 M NaOH (210 μL, trace metal grade). After 5 min at ambient temperature, the reaction solution was analyzed by TLC (0.4 M pH 4 sodium citrate as the eluent), which confirmed >95% radiochemical yield. The reaction was allowed to proceed overnight, and the radiochemical yield was again confirmed to be >95% the following morning. At this time, mice were anesthetized by 2% isoflurane, and approximately 100 μL (10-15 kBq) of the [^225Ac(macropa)]^+ complex were injected into the tail vein of each mouse. After injection, mice were allowed to recover and roam freely in their cages, and were euthanized by CO2 inhalation at 15 min, 1 h, or 5 h (n=3 at each time point) post-injection. Blood was collected by cardiac puncture and placed into an appropriate test tube for scintillation counting. Tissues collected included heart, liver, kidneys, lungs, small intestine, large intestine, brain, bladder, spleen, stomach, pancreas, bone, thyroid, tail, urine, and feces. Tissues were weighed and then counted with a calibrated gamma counter (Packard, Cobra II model 5002) using three energy windows: 60-120 keV (window A), 180-260 keV (window B), and 400-480 keV (window C). Counting was performed both immediately after sacrifice and after 7 days; counts were decay corrected from the time of injection and then converted to the percentage of injected dose (% ID) per gram of tissue (% ID/g). […]\nThe biodistribution studies of [^225Ac(DOTA)]^− and ^225Ac(NO3)3 were carried out as described above for [^225Ac(macropa)]^+, with the following modifications. [^225Ac(DOTA)^− was prepared by adding ^225Ac(NO3)3 (338 μL, 1.1 MBq) to a solution of DOTA (100 μg, 20 mg/mL in H2O) in NH4OAc (467 μL, 0.15 M, pH 7). The pH of the solution was adjusted to 7 using NH4OAc (150 μL, 1 M, pH 7) and the solution was heated at 85° C. for 45 min. RCY >99% was confirmed by TLC as described above. [^225Ac(DOTA)]^− was diluted with saline to a final concentration of 0.05 MBq/100 μL, and 100 μL were injected into each mouse. ^225Ac(NO3)3 (˜58 μL, 0.4 MBq) was diluted and injected in the same manner as [^225Ac(DOTA)]^−. One mouse that was to be euthanized at the 5 h time point in the [^225Ac(DOTA)]^− study died shortly after injection. In the same manner, one mouse that was to be euthanized at the 1 h time point in the ^225Ac(NO3)3 study died.\nThe in vivo stability [^225Ac(macropa)]^+ was examined by comparing its biodistribution to those of ^225Ac(NO3)3 and [^225Ac(DOTA)]^−. C57BL/6 mice were injected via tail vein with 10-50 kBq of each radiometal complex and were sacrificed after 15 min, 1 h, or 5 h. The amount of ^225Ac retained in each organ was quantified by gamma counting and reported as the percent of injected dose per gram of tissue (% ID/g). The results of these studies are compiled in Tables 1-3. Inadequate stability of an ^225Ac complex leading to the loss of radioisotope in vivo is manifested by the accumulation of ^225Ac in the liver, spleen, and bone of mice.^[11,12,32] […] The biodistribution profile of [^225Ac(macropa)]^+ (FIG. 3B) differs markedly from that of ^225Ac(NO3)3. […] Its biodistribution profile was similar to that of [^225Ac(DOTA)]^− (FIG. 3C), which has been previously shown to retain ^225Ac^3+ in vivo.^[7]", "key": {"[1]": {"conditions": "15 min post i.v. injection, energy window A (60-120 keV)"}, "[2]": {"conditions": "15 min post i.v. injection, energy window B (180-260 keV)"}, "[3]": {"conditions": "15 min post i.v. injection, energy window C (400-480 keV)"}, "[4]": {"conditions": "1 h post i.v. injection, energy window A (60-120 keV)"}}, "data": [{"smiles": "O=C([O-])CN1CCN(CC(=O)[O-])CCN(CC(=O)[O-])CCN(CC(=O)[O-])CC1.[225Ac+3]", "note": "[[^225Ac(DOTA)]^−]", "values": [{"measurement": "Organ distribution: bladder", "setting": "[1]", "value": 48.2703, "unit": "% ID/g"}, {"measurement": "Organ distribution: blood", "setting": "[1]", "value": 5.2881, "unit": "% ID/g"}, {"measurement": "Organ distribution: bone (femur + joint)", "setting": "[1]", "value": 2.6298, "unit": "% ID/g"}, {"measurement": "Organ distribution: brain", "setting": "[1]", "value": 0.2655, "unit": "% ID/g"}, {"measurement": "Organ distribution: feces", "setting": "[1]", "value": 6.2730, "unit": "% ID/g"}, {"measurement": "Organ distribution: heart", "setting": "[1]", "value": 2.3335, "unit": "% ID/g"}, {"measurement": "Organ distribution: kidneys", "setting": "[1]", "value": 27.6566, "unit": "% ID/g"}, {"measurement": "Organ distribution: large intestines", "setting": "[1]", "value": 2.3348, "unit": "% ID/g"}, {"measurement": "Organ distribution: liver", "setting": "[1]", "value": 2.2520, "unit": "% ID/g"}, {"measurement": "Organ distribution: lungs", "setting": "[1]", "value": 5.7556, "unit": "% ID/g"}, {"measurement": "Organ distribution: pancreas", "setting": "[1]", "value": 1.5090, "unit": "% ID/g"}, {"measurement": "Organ distribution: small intestines", "setting": "[1]", "value": 2.6370, "unit": "% ID/g"}, {"measurement": "Organ distribution: spleen", "setting": "[1]", "value": 2.5905, "unit": "% ID/g"}, {"measurement": "Organ distribution: stomach", "setting": "[1]", "value": 2.7440, "unit": "% ID/g"}, {"measurement": "Organ distribution: tail", "setting": "[1]", "value": 8.8606, "unit": "% ID/g"}, {"measurement": "Organ distribution: thyroids", "setting": "[1]", "value": "−5.7725", "unit": "% ID/g"}, {"measurement": "Organ distribution: urine", "setting": "[1]", "value": 1467.9186, "unit": "% ID/g"}, {"measurement": "Organ distribution: bladder", "setting": "[2]", "value": 54.4696, "unit": "% ID/g"}, {"measurement": "Organ distribution: blood", "setting": "[2]", "value": 5.6357, "unit": "% ID/g"}, {"measurement": "Organ distribution: bone (femur + joint)", "setting": "[2]", "value": 3.0357, "unit": "% ID/g"}, {"measurement": "Organ distribution: brain", "setting": "[2]", "value": 0.2735, "unit": "% ID/g"}, {"measurement": "Organ distribution: feces", "setting": "[2]", "value": 1.0222, "unit": "% ID/g"}, {"measurement": "Organ distribution: heart", "setting": "[2]", "value": 2.7276, "unit": "% ID/g"}, {"measurement": "Organ distribution: kidneys", "setting": "[2]", "value": 28.0858, "unit": "% ID/g"}, {"measurement": "Organ distribution: large intestines", "setting": "[2]", "value": 2.5365, "unit": "% ID/g"}, {"measurement": "Organ distribution: liver", "setting": "[2]", "value": 2.1817, "unit": "% ID/g"}, {"measurement": "Organ distribution: lungs", "setting": "[2]", "value": 6.0147, "unit": "% ID/g"}, {"measurement": "Organ distribution: pancreas", "setting": "[2]", "value": 1.4929, "unit": "% ID/g"}, {"measurement": "Organ distribution: small intestines", "setting": "[2]", "value": 2.5009, "unit": "% ID/g"}, {"measurement": "Organ distribution: spleen", "setting": "[2]", "value": 2.9076, "unit": "% ID/g"}, {"measurement": "Organ distribution: stomach", "setting": "[2]", "value": 2.7311, "unit": "% ID/g"}, {"measurement": "Organ distribution: tail", "setting": "[2]", "value": 9.4746, "unit": "% ID/g"}, {"measurement": "Organ distribution: thyroids", "setting": "[2]", "value": 1.6601, "unit": "% ID/g"}, {"measurement": "Organ distribution: urine", "setting": "[2]", "value": 1635.4394, "unit": "% ID/g"}, {"measurement": "Organ distribution: bladder", "setting": "[3]", "value": 76.0987, "unit": "% ID/g"}, {"measurement": "Organ distribution: blood", "setting": "[3]", "value": 7.2941, "unit": "% ID/g"}, {"measurement": "Organ distribution: bone (femur + joint)", "setting": "[3]", "value": 4.4224, "unit": "% ID/g"}, {"measurement": "Organ distribution: brain", "setting": "[3]", "value": 0.1588, "unit": "% ID/g"}, {"measurement": "Organ distribution: feces", "setting": "[3]", "value": 1.5693, "unit": "% ID/g"}, {"measurement": "Organ distribution: heart", "setting": "[3]", "value": 2.5579, "unit": "% ID/g"}, {"measurement": "Organ distribution: kidneys", "setting": "[3]", "value": 40.4489, "unit": "% ID/g"}, {"measurement": "Organ distribution: large intestines", "setting": "[3]", "value": 3.8419, "unit": "% ID/g"}, {"measurement": "Organ distribution: liver", "setting": "[3]", "value": 2.9046, "unit": "% ID/g"}, {"measurement": "Organ distribution: lungs", "setting": "[3]", "value": 7.3872, "unit": "% ID/g"}, {"measurement": "Organ distribution: pancreas", "setting": "[3]", "value": 1.0290, "unit": "% ID/g"}, {"measurement": "Organ distribution: small intestines", "setting": "[3]", "value": 3.8916, "unit": "% ID/g"}, {"measurement": "Organ distribution: spleen", "setting": "[3]", "value": 1.5598, "unit": "% ID/g"}, {"measurement": "Organ distribution: stomach", "setting": "[3]", "value": 3.2425, "unit": "% ID/g"}, {"measurement": "Organ distribution: tail", "setting": "[3]", "value": 13.4731, "unit": "% ID/g"}, {"measurement": "Organ distribution: thyroids", "setting": "[3]", "value": "−109.5394", "unit": "% ID/g"}, {"measurement": "Organ distribution: urine", "setting": "[3]", "value": 2691.0615, "unit": "% ID/g"}, {"measurement": "Organ distribution: bladder", "setting": "[4]", "value": 4.7351, "unit": "% ID/g"}, {"measurement": "Organ distribution: blood", "setting": "[4]", "value": 0.1144, "unit": "% ID/g"}, {"measurement": "Organ distribution: bone (femur + joint)", "setting": "[4]", "value": 0.4487, "unit": "% ID/g"}, {"measurement": "Organ distribution: brain", "setting": "[4]", "value": 0.0224, "unit": "% ID/g"}, {"measurement": "Organ distribution: feces", "setting": "[4]", "value": 0.2035, "unit": "% ID/g"}, {"measurement": "Organ distribution: heart", "setting": "[4]", "value": 0.1012, "unit": "% ID/g"}, {"measurement": "Organ distribution: kidneys", "setting": "[4]", "value": 1.4020, "unit": "% ID/g"}, {"measurement": "Organ distribution: large intestines", "setting": "[4]", "value": 0.1229, "unit": "% ID/g"}, {"measurement": "Organ distribution: liver", "setting": "[4]", "value": 0.2715, "unit": "% ID/g"}, {"measurement": "Organ distribution: lungs", "setting": "[4]", "value": 0.1555, "unit": "% ID/g"}, {"measurement": "Organ distribution: pancreas", "setting": "[4]", "value": 0.0743, "unit": "% ID/g"}, {"measurement": "Organ distribution: small intestines", "setting": "[4]", "value": 1.7207, "unit": "% ID/g"}, {"measurement": "Organ distribution: spleen", "setting": "[4]", "value": 0.0938, "unit": "% ID/g"}, {"measurement": "Organ distribution: stomach", "setting": "[4]", "value": 0.1367, "unit": "% ID/g"}, {"measurement": "Organ distribution: tail", "setting": "[4]", "value": 0.8091, "unit": "% ID/g"}, {"measurement": "Organ distribution: thyroids", "setting": "[4]", "value": 2.3564, "unit": "% ID/g"}, {"measurement": "Organ distribution: urine", "setting": "[4]", "value": 158.6102, "unit": "% ID/g"}]}]}
